Experimental data taken from PubChem BioAssay (NCI).
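Cultured in 96-well plates, cells were exposed to test compound for 48 hours across five concentrations. At the TGI there is no net growth.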

How the values were obtained:
Experiment in all cases: DTP human tumour cell line panel, 48 h
HCT-15 colon = tested on: HCT-15 colon
A498 renal = tested on: A498 renal
OVCAR-4 ovarian = tested on: OVCAR-4 ovarian
NCI/ADR-RES ovarian = tested on: NCI/ADR-RES ovarian
KM20L2 colon = tested on: KM20L2 colon
XF 498 CNS = tested on: XF 498 CNS
DLD-1 colon = tested on: DLD-1 colon
DMS 273 small cell lung = tested on: DMS 273 small cell lung
SNB-78 CNS = tested on: SNB-78 CNS
LXFL 529 NSCLC = tested on: LXFL 529 NSCLC
DMS 114 small cell lung = tested on: DMS 114 small cell lung
M19-MEL melanoma = tested on: M19-MEL melanoma

n1onc2c1NC1Nc3nonc3NC1N2 (configuration not stated)
TGI (HCT-15 colon): > 100 µM | TGI (A498 renal): > 100 µM | TGI (OVCAR-4 ovarian): > 100 µM | TGI (NCI/ADR-RES ovarian): > 100 µM

CC(=O)Nc1ccc(N=C2C(c3ccccc3)=C(SC3=C(c4ccccc4)C(=Nc4ccc(NC(C)=O)cc4)c4ccccc43)c3ccccc32)cc1
TGI (HCT-15 colon): > 100 µM | TGI (A498 renal): 87.1 µM | TGI (OVCAR-4 ovarian): > 100 µM | TGI (NCI/ADR-RES ovarian): 72.9 µM

O=C1CS(=O)(=O)C(c2cccc(Oc3ccccc3)c2)N1c1cccc(Cl)c1 (configuration not stated)
TGI (HCT-15 colon): > 100 µM | TGI (OVCAR-4 ovarian): > 100 µM | TGI (NCI/ADR-RES ovarian): > 100 µM

Cn1ccc(C(=O)N2CCSC2=S)c(OCc2ccccc2)c1=O
TGI (HCT-15 colon): > 100 µM | TGI (A498 renal): > 100 µM | TGI (OVCAR-4 ovarian): > 100 µM | TGI (NCI/ADR-RES ovarian): > 100 µM

N#CCCN(c1ccc(/C=C2\N=C(Cc3ccccc3)OC2=O)cc1)S(=O)(=O)c1ccccc1
TGI (KM20L2 colon): > 100 µM | TGI (XF 498 CNS): > 100 µM | TGI (DLD-1 colon): > 100 µM | TGI (HCT-15 colon): > 100 µM | TGI (DMS 273 small cell lung): > 100 µM | TGI (A498 renal): > 100 µM | TGI (SNB-78 CNS): > 100 µM | TGI (LXFL 529 NSCLC): > 100 µM | TGI (DMS 114 small cell lung): > 100 µM

CCCCCCNC(=O)c1cc(CCc2cc(O)ccc2O)ccc1O
TGI (HCT-15 colon): 12.8 µM | TGI (A498 renal): 15.4 µM | TGI (OVCAR-4 ovarian): 6.75 µM | TGI (NCI/ADR-RES ovarian): > 67.7 µM

Cc1n[nH]c(=O)n1C1CCCC1
TGI (HCT-15 colon): > 100 µM | TGI (A498 renal): > 100 µM | TGI (OVCAR-4 ovarian): > 100 µM | TGI (NCI/ADR-RES ovarian): > 100 µM

COCO[C@@H]1C[C@H]2C(=O)N(COC)c3ccccc3C(=O)N2C1
TGI (HCT-15 colon): > 100 µM | TGI (A498 renal): > 100 µM | TGI (OVCAR-4 ovarian): > 100 µM | TGI (NCI/ADR-RES ovarian): > 100 µM

C1=Nc2ccc(cc2)N=Cc2ccc(cc2)OCc2cccc(n2)COc2ccc1cc2
TGI (HCT-15 colon): > 100 µM | TGI (A498 renal): > 100 µM | TGI (OVCAR-4 ovarian): > 100 µM | TGI (NCI/ADR-RES ovarian): > 100 µM

O=[N+]([O-])c1ccc(-c2nc3ccc([N+](=O)[O-])cc3[nH]2)cc1
TGI (HCT-15 colon): > 100 µM | TGI (OVCAR-4 ovarian): > 100 µM | TGI (NCI/ADR-RES ovarian): 57.6 µM

O=S(=O)(N/N=C1\CC2CCC1C2)c1ccccc1 (configuration not stated)
TGI (HCT-15 colon): > 100 µM | TGI (OVCAR-4 ovarian): > 100 µM | TGI (NCI/ADR-RES ovarian): > 100 µM

CC(C)(C)n1c(=O)[nH]n(C2NN=Cc3cccc4cccc2c34)c1=O (configuration not stated)
TGI (HCT-15 colon): > 100 µM | TGI (A498 renal): 64.9 µM | TGI (OVCAR-4 ovarian): > 100 µM | TGI (NCI/ADR-RES ovarian): > 100 µM

O=C(N/N=C(/COc1ccc(Cl)cc1)N=Cc1cccnc1)c1ccncc1
TGI (HCT-15 colon): > 100 µM | TGI (A498 renal): > 100 µM | TGI (OVCAR-4 ovarian): > 100 µM | TGI (NCI/ADR-RES ovarian): > 100 µM

CC(C)(C)OC(=O)CC(NC(=O)OC(C)(C)C)C(=O)N[C@@H]1CCCC[C@H]1C(=O)OCc1ccccc1 (some centres not stated)
TGI (HCT-15 colon): 39.4 µM | TGI (OVCAR-4 ovarian): > 100 µM | TGI (NCI/ADR-RES ovarian): > 100 µM

Cc1ncc([N+](=O)[O-])n1CCN(C)C(=O)CCCn1ccnc1[N+](=O)[O-]
TGI (HCT-15 colon): > 100 µM | TGI (A498 renal): > 100 µM | TGI (OVCAR-4 ovarian): > 100 µM | TGI (NCI/ADR-RES ovarian): > 100 µM

COC(=O)[C@H](Cc1ccccc1)NC(=O)N1CCCN(C(=O)N[C@@H](Cc2ccccc2)C(=O)OC)CCCN(C(=O)N[C@@H](Cc2ccccc2)C(=O)OC)CCC1
TGI (HCT-15 colon): 63.4 µM | TGI (A498 renal): 44.3 µM | TGI (OVCAR-4 ovarian): 54.7 µM | TGI (NCI/ADR-RES ovarian): 74.7 µM

N#CC(c1ccnc(Cl)n1)c1nc2ccccc2s1 (configuration not stated)
TGI (HCT-15 colon): 14.8 µM | TGI (A498 renal): 46.7 µM | TGI (OVCAR-4 ovarian): > 100 µM | TGI (NCI/ADR-RES ovarian): 19.7 µM

COc1ccc(N(CN2C(=O)CCC2C(=O)O)C(C)=O)cc1 (configuration not stated)
TGI (HCT-15 colon): > 100 µM | TGI (A498 renal): > 100 µM | TGI (OVCAR-4 ovarian): > 100 µM | TGI (NCI/ADR-RES ovarian): > 100 µM

N#Cc1c2c(c(Nc3cccc(C(F)(F)F)c3)n3c1nc1ccccc13)CCC2
TGI (HCT-15 colon): > 100 µM | TGI (A498 renal): > 100 µM | TGI (OVCAR-4 ovarian): > 100 µM | TGI (NCI/ADR-RES ovarian): > 100 µM

COC(=O)CC1C(COC(C)=O)OC(n2cc(C)c(=O)[nH]c2=O)C1OC(C)=O (configuration not stated)
TGI (HCT-15 colon): > 100 µM | TGI (A498 renal): > 100 µM | TGI (OVCAR-4 ovarian): > 100 µM | TGI (NCI/ADR-RES ovarian): > 100 µM

COc1ccc(/C=C2\C(=O)N(C)C(=O)c3cc(OC)c(OC)cc32)cc1OC
TGI (HCT-15 colon): > 100 µM | TGI (A498 renal): > 100 µM | TGI (OVCAR-4 ovarian): > 100 µM

COc1ccccc1/C=C(\C#N)C(=O)c1ccccc1
TGI (KM20L2 colon): > 100 µM | TGI (XF 498 CNS): > 100 µM | TGI (M19-MEL melanoma): > 100 µM | TGI (HCT-15 colon): > 100 µM | TGI (DMS 273 small cell lung): > 100 µM | TGI (A498 renal): > 100 µM | TGI (OVCAR-4 ovarian): > 100 µM | TGI (SNB-78 CNS): > 100 µM | TGI (DMS 114 small cell lung): > 100 µM

O=C(c1ccco1)N(Cc1ccco1)C(=S)Nc1ccccc1
TGI (HCT-15 colon): 36.2 µM | TGI (OVCAR-4 ovarian): 68.1 µM | TGI (NCI/ADR-RES ovarian): 55.3 µM

S=c1nc(Cc2ccc(Cl)cc2)[nH][nH]1
TGI (HCT-15 colon): > 100 µM | TGI (A498 renal): > 100 µM | TGI (OVCAR-4 ovarian): > 100 µM | TGI (NCI/ADR-RES ovarian): > 100 µM

NC(=O)c1cccc(C2OC(COP(=O)(O)O)C(O)C2O)c1 (configuration not stated)
TGI (KM20L2 colon): > 50 µM | TGI (XF 498 CNS): > 50 µM | TGI (DLD-1 colon): > 50 µM | TGI (M19-MEL melanoma): > 50 µM | TGI (HCT-15 colon): > 50 µM | TGI (DMS 273 small cell lung): > 50 µM | TGI (A498 renal): > 50 µM | TGI (SNB-78 CNS): > 50 µM | TGI (LXFL 529 NSCLC): > 50 µM

CN(C)c1nc2oc(-c3ccccc3)c(-c3ccccc3)c2c2nncn12
TGI (HCT-15 colon): > 100 µM | TGI (A498 renal): > 100 µM | TGI (OVCAR-4 ovarian): > 100 µM | TGI (NCI/ADR-RES ovarian): > 100 µM

Cc1c(C#N)c2ccccc2c2nc3ccccc3n12
TGI (HCT-15 colon): > 100 µM | TGI (A498 renal): > 100 µM | TGI (OVCAR-4 ovarian): > 100 µM | TGI (NCI/ADR-RES ovarian): > 100 µM

O=c1[nH]cnc2c1sc1nc3ccccc3n12
TGI (HCT-15 colon): > 100 µM | TGI (A498 renal): > 100 µM | TGI (OVCAR-4 ovarian): > 100 µM | TGI (NCI/ADR-RES ovarian): > 100 µM

COc1cc(/C=N/n2c(Cc3ccc(Cl)cc3)n[nH]c2=O)cc(OC)c1OC
TGI (HCT-15 colon): > 100 µM | TGI (A498 renal): > 100 µM | TGI (OVCAR-4 ovarian): > 100 µM | TGI (NCI/ADR-RES ovarian): > 100 µM

CCOc1ccc(Nc2nc3c(s2)C(=O)c2ccccc2C3=O)cc1
TGI (HCT-15 colon): > 100 µM | TGI (A498 renal): 29.7 µM | TGI (OVCAR-4 ovarian): 21.3 µM

Cc1ccc(Cc2n[nH]c(=O)n2/N=C\CC/C=N\n2c(Cc3ccc(C)cc3)n[nH]c2=O)cc1
TGI (HCT-15 colon): > 100 µM | TGI (A498 renal): > 100 µM | TGI (OVCAR-4 ovarian): > 100 µM | TGI (NCI/ADR-RES ovarian): 49.9 µM

Cc1nc2ccc(Cl)cc2c2c1CCS2
TGI (HCT-15 colon): > 100 µM | TGI (A498 renal): 99.2 µM | TGI (OVCAR-4 ovarian): > 100 µM | TGI (NCI/ADR-RES ovarian): > 100 µM

Cc1cc2c(cc1Cl)SC(c1ccccc1)C(=O)NS2(=O)=O (configuration not stated)
TGI (HCT-15 colon): 64 µM | TGI (A498 renal): 75.5 µM | TGI (OVCAR-4 ovarian): > 100 µM | TGI (NCI/ADR-RES ovarian): 91.9 µM

O=Cc1c2ccccc2n2ccc3c4ccccc4[nH]c3c12
TGI (HCT-15 colon): > 10 µM | TGI (OVCAR-4 ovarian): > 10 µM | TGI (NCI/ADR-RES ovarian): > 10 µM

CCOC(=O)[C@]12C(=C(c3ccccc3)O[C@H]3C=CCC[C@H]31)C(=O)C(=O)N2c1ccccc1
TGI (HCT-15 colon): > 100 µM | TGI (A498 renal): > 100 µM | TGI (OVCAR-4 ovarian): > 100 µM | TGI (NCI/ADR-RES ovarian): > 100 µM
